Our source for the IC50 values is patent US12234222B2, “Piperazine amide derivative, preparation method therefor, and use thereof in medicine” (ZHEJIANG HISUN PHARMACEUTICAL CO., LTD., priority 2019, dated 2025).

The structures appear in SMILES notation.

In experiment [1] the target is Human RET protein (RET kinase) (Homo sapiens (Human), UniProt P07949). As to the kind of experiment: RET kinase activity, HTRF KinEASE-TK TR-FRET assay. Type of experiment: biochemical. The following applies: inhibition of RET kinase; 9 concentrations 3200 nM~0.008 nM, 2% DMSO. How it is done: Test Example 1. Determination of the Activity of the Compound of the Present Disclosure on RET Kinase
Human RET protein (RET kinase), sequence (P07949 29-1114): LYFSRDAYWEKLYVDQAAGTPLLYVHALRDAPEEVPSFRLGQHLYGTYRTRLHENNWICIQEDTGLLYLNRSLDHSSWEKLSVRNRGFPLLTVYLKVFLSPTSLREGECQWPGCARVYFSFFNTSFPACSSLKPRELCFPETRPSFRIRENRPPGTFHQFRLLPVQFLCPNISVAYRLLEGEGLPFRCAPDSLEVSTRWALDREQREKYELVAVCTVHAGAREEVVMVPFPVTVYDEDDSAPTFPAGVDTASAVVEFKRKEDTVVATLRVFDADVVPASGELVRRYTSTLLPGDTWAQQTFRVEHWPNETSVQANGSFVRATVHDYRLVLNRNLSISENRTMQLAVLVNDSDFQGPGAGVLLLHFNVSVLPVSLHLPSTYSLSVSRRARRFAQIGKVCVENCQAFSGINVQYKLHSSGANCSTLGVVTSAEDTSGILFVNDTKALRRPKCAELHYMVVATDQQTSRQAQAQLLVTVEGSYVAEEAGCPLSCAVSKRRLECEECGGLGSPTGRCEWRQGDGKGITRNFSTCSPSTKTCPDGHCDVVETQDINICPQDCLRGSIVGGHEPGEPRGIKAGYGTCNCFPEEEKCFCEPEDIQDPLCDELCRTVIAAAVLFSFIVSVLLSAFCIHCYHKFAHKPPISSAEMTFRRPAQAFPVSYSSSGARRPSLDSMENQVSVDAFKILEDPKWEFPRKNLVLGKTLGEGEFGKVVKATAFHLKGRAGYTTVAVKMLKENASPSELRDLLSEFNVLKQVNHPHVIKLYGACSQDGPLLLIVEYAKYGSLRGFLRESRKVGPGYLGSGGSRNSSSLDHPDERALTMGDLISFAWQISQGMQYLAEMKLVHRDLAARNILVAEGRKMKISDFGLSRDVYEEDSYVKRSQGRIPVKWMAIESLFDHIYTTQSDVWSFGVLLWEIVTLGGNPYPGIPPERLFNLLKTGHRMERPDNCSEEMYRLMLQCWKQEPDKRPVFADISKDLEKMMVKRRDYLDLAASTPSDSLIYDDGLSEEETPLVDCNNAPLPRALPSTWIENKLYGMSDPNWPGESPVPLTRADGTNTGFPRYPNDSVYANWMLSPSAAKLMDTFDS
(§1) In this method, HTRF®KinEASE-TK Tyrosine Kinase Kit (Cat. No. 62TK0PEB) of Cisbio was used to determine the degree of phosphorylation of biotinylated polypeptide substrates by time-resolved fluorescence energy transfer (TR-FRET). Human RET protein (RET kinase) was purchased from Carna bioscience (Japan, Cat. No. 08-159-5 μg).
(§2) The experimental steps are as follows: • (1) The test compound (the compound of the present disclosure, and compound 164 in WO2018017983A1 as a control) was dissolved in 100% DMSO to a final concentration of 10 mM. • (2) 4 μL of the test compound solution prepared in step (1) was dissolved with 46 μL of 100% DMSO, and the solution obtained in this step was numbered as No. 2. • (3) No. 2 solution was subjected to subsequent gradient dilution with a dilution factor of 5 times (i.e. 20 μL of 100% DMSO was added to 5 μL of the compound), a total of 9 gradients, numbered 3 to 11.
Note: No. 2 was not used for the dilution in step (4).
(§3) (Unless otherwise specified, the following steps need to be carried out on ice) • (4) The buffer provided in the kit (Cisbio, Cat. No. 62TK0PEB) was used to continuously serially dilute the solutions numbered from 3 to 11 with a dilution factor of 20 times (that is, adding 19 μL of buffer to the solutions numbered from 3 to 11). At this time, the final concentration range of the test compound in the system No. 3 to 11 was 3200 nM˜0.008 nM (9 gradients), and the final concentration of DMSO was 2%. • (5) 9 compound solutions of gradient concentration in step (4) were added into a 384-well plate in order according to their concentration at 4 μL per well, and two duplicate wells were set. • (6) 2 μL of human RET protein was added to each well and incubated on ice for 10 minutes. • (7) 2 μL of ATP (Sigma #A7699) and 2 μL of biotinylated polypeptide substrate (Cisbio, Cat. No. 62TK0PEB) were added to each well to start the phosphorylation reaction, and incubated at 37° C. for half an hour. • (8) 5 μL of anti-phosphotyrosine antibody coupled with europium compound (provided in the kit, Cat. No. 62TK0PEB) and 5 μL of streptavidin coupled with modified allophycocyanin XL665 (Cisbio, Cat. No. 62TK0PEB) were added to each well. • (9) The plate was continued to incubate for 1 hour at room temperature. After the incubation, the TF-FRET mode of the microplate reader (BMG Labtech, model: FLUOStar Omega) was adopted to measure the fluorescence intensity at an excitation wavelength of 304 nm and emission wavelengths of 615 nm and […] in each well. The ratio would be calculated automatically. • (10) By comparing the fluorescence intensity ratio in the control group, the inhibition rate of the compound at each concentration was calculated, and GraphPad Prism 5 was used to perform curve fitting with logarithmic concentration-inhibition rate to calculate the IC50 value of the compound.
In general terms: TR-FRET usually uses a lanthanide donor and a delayed reading to cut background.

Another experiment concerns the target KDR kinase (Homo sapiens (Human), UniProt P35968). As to the kind of experiment: KDR control kinase activity, HTRF KinEASE-TK TR-FRET assay. It counts as biochemical. The settings on record: inhibition of KDR kinase; 16000 nM~0.04 nM, 2% DMSO. How it is done:
as §1, §2, §3
The selected control kinase is another receptor tyrosine kinase, KDR, with similar structure to RET kinase, purchased from Carna bioscience (Japan, Cat. No. 08-191-5 μg). The step of gradient dilution was the same as that of RET kinase, and the final concentration range of the test compound in the reaction system was 16000 nM˜0.04 nM (No. 2-10 solutions were used for the gradient dilution in step 4). Other reaction conditions were the same as above, and the final concentration of DMSO was 2%. The calculation method for the IC50 value of KDR kinase inhibition by the test compound was the same as the calculation method for the IC50 value of RET kinase inhibition.

As usually defined, the IC50 is the midpoint of a concentration-inhibition curve. Low readings indicate greater potency, high ones weaker potency.

KDR kinase, sequence (P35968 20-1356): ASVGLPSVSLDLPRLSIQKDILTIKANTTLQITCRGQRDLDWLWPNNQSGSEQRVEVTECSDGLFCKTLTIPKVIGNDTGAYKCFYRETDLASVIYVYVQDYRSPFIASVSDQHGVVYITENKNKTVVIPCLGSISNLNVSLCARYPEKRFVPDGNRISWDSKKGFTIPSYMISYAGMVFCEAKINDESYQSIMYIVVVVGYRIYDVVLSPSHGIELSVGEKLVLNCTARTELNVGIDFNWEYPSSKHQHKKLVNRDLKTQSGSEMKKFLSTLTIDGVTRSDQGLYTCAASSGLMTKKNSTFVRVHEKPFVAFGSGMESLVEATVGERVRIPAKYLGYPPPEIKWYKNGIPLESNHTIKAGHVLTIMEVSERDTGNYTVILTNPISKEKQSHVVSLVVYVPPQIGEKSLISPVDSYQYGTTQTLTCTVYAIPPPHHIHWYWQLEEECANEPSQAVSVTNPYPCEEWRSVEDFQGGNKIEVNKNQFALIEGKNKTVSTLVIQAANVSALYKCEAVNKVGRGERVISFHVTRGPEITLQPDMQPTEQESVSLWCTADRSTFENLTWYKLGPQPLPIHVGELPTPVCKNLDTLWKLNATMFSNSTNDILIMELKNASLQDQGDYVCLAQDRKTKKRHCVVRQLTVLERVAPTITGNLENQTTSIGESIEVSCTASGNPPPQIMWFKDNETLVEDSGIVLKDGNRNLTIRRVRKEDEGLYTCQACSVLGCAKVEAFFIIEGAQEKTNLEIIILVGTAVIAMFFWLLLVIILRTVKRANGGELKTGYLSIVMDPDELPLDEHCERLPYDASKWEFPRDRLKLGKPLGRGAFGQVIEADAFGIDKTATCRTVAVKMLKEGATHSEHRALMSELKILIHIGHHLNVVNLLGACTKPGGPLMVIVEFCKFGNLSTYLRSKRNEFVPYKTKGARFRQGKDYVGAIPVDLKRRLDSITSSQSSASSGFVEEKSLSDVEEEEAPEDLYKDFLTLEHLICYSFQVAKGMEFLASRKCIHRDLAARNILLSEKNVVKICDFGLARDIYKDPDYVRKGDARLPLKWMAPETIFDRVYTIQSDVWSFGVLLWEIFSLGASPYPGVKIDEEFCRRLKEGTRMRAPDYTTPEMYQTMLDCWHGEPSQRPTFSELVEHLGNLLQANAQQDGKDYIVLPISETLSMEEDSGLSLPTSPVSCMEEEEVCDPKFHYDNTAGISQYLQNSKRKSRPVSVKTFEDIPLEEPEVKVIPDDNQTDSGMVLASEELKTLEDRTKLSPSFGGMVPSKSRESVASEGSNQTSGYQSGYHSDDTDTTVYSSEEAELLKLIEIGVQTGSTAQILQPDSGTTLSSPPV

Regarding `Cc1cc(Nc2cc(C)[nH]n2)nc(N2CC3CCC(C2)N3C(=O)c2ccc(-c3cnn(C)c3)nn2)n1` [Compound I-22, (6-(1-methyl-1H-pyrazol-4-yl)pyridazin-3-yl)(3-(4-methyl-6-((5-methyl-1H-pyrazol-3-yl)amino)pyrimidin-2-yl)-3,8-diazabicyclo[3.2.1]octane-8-yl)methanone], the half-maximal inhibitory concentration (IC50) in experiment [1] worked out at 2 nM; against KDR kinase, 221 nM.

`Cc1cc(Nc2cc(C)[nH]n2)nc(N2CCN(C(=O)c3ccc(-n4cc(F)cn4)nc3)C3(CC3)C2)n1` [Compound I-12, (6-(4-fluoro-1H-pyrazol-1-yl)pyridin-3-yl)(7-(4-methyl-6-((5-methyl-1H-pyrazol-3-yl)amino)pyrimidin-2-yl)-4,7-diazaspiro[2.5]octane-4-yl)methanone]: the IC50 in experiment [1] was 0.6 nM; against KDR kinase, 180 nM.

As for `Cc1cc(Nc2cc(C)[nH]n2)nc(N2CC3CCC(C2)N3C(=O)c2ccc(-c3cnn(C)c3)nc2)n1` [Compound I-24, (6-(1-methyl-1H-pyrazol-4-yl)pyridin-3-yl)(3-(4-methyl-6-((5-methyl-1H-pyrazol-3-yl)amino)pyrimidin-2-yl)-3,8-diazabiciyclo [3.2.1]octane-8-yl) methanone], the IC50 in experiment [1] came out at 8.1 nM; against KDR kinase, 374 nM.

Turning to `Cc1cc(Nc2cc(C)[nH]n2)nc(N2CC3CCC(C2)N3C(=O)c2ccc(-c3ccc(F)cc3)nc2)n1` [Compound I-25, (6-(4-fluorophenyl)pyridin-3-yl)(3-(4-methyl-6-((5-methyl-1H-pyrazol-3-yl)amino)pyrimidin-2-yl)-3,8-diazabicyclo[3.2.1]octane 8-yl)methanone], the IC50 in experiment [1] was determined as 5.6 nM; against KDR kinase, 260 nM.

As for `Cc1cc(Nc2cc(C)[nH]n2)nc(N2CC3CCC(C2)N3C(=O)c2ccc(-c3ccncc3)nc2)n1` [Compound I-28, [2,4′-bipyridin]-5-yl(3-(4-methyl-6-((5-methyl-1H-pyrazol-3-yl)amino)pyrimidin-2-yl)-3,8-diazabicyclo [3.2.1]octane-8-yl)methanone], the IC50 in experiment [1] was 2.6 nM; on KDR kinase, 467 nM.

With `Cc1cc(Nc2cc(C)[nH]n2)nc(N2CC3CCC(C2)N3C(=O)c2ccc(N3CC4C(C3)C4(C)C)nc2)n1` (stereo not drawn) [Compound I-10, (6-(6,6-dimethyl-3-azabicyclo [3.1.0]hexane-3-yl)pyridin-3-yl)(3-(4-methyl-6-((5-methyl-1H-pyrazol-3-yl)amino)pyrimidin-2-yl)-3,8-diazabicyclo[3.2.1]octane-8-yl)methanone], the IC50 in experiment [1] came out at 7.3 nM; on KDR kinase, 1550 nM.

On to `Cc1cc(Nc2cc(C(=O)O)nc(N3CC4CCC(C3)N4C(=O)c3ccc(-n4cc(F)cn4)nc3)n2)n[nH]1` [Compound I-19, 2-(8-(6-(4-fluoro-1H-pyrazol-1-yl)nicotinoyl)-3,8-diazabicyclo[3.2.1]octane-3-yl)-6-((5-methyl-1H-pyrazol-3-yl)amino)pyrimidin-4-formic acid], for which the figures for the IC50 (in experiment [1]; at KDR kinase) were 25.6 nM and 2760 nM, respectively.

In the case of `Cc1cc(Nc2cc(C)[nH]n2)nc(N2CC3CCC(C2)N3C(=O)c2ccc(-n3cc(F)cn3)nn2)n1` [Compound I-13, (6-(4-fluoro-1H-pyrazol-1-yl)pyridazin-3-yl)(3-(4-methyl-6-((5-methyl-1H-pyrazol-3-yl)amino)pyrimidin-2-yl)-3,8-diazabicyclo[3.2.1]octane-8-yl)methanone], the IC50 in experiment [1] stood at 1.5 nM; at KDR kinase it was 78 nM.

As for `Cc1cc(Nc2cc(C)[nH]n2)nc(N2CC3COCC(C2)N3C(=O)c2ccc(-n3cc(F)cn3)nc2)n1` [Compound I-7, (6-(4-fluoro-1H-pyrazol-1-yl)pyridin-3-yl)(7-(4-methyl-6-((5-methyl-1H-pyrazol-3-yl)amino)pyrimidin-2-yl)-3-oxa-7,9-diazabicyclo [3.3.1]nonane-9-yl)methanone], the IC50 in experiment [1] turned out to be 10.3 nM; at KDR kinase, 391 nM.

For the compound `Cc1cc(Nc2cc(C(F)(F)F)nc(N3CC4CCC(C3)N4C(=O)c3ccc(-n4cc(F)cn4)nn3)n2)n[nH]1` [Compound I-16, (6-(4-fluoro-1H-pyrazol-1-yl)pyridazin-3-yl)(3-(4-((5-methyl-1H-pyrazol-3-yl)amino)-6-(trifluoromethyl)pyrimidin-2-yl)-3,8-diazabicyclo[3.2.1]octane-8-yl)methanone], the IC50 worked out at 8 nM in experiment [1] and 738 nM against KDR kinase.

On to `Cc1cc(Nc2cc(C)[nH]n2)nc(N2CCC(C(=O)N[C@@H](C)c3ccc(-n4cc(F)cn4)nc3)CC2)c1` [Compound 164, reference compound], for which the IC50 in experiment [1] came out at 73 nM; on KDR kinase, 2300 nM.

Turning to `COC(=O)c1cc(Nc2cc(C)[nH]n2)nc(N2CC3CCC(C2)N3C(=O)c2ccc(-n3cc(F)cn3)nc2)n1` [Compound I-11, Methyl 2-(8-(6-(4-fluoro-1H-pyrazol-1-yl)nicotinoyl)-3,8-diazabicyclo[3.2.1]octane-3-yl)-6-((5-methyl-1H-pyrazol-3-yl)amino)pyrimidin-4-carboxylate], the concentration for half-maximal inhibition (IC50) was found to be 24.7 nM in experiment [1] and 1020 nM against KDR kinase.

In the case of `Cc1cc(Nc2cc(C)[nH]n2)nc(N2C3CCC2CN(C(=O)c2ccc(-n4cc(F)cn4)nn2)C3)c1` [Compound I-30, (6-(4-fluoro-1H-pyrazol-1-yl)pyridazin-3-yl)(8-(4-methyl-6-((5-methyl-1H-pyrazol-3-yl)amino)pyridin-2-yl)-3,8-diazabicyclo[3.2.1]octane-3-yl)methanone], the IC50 came out at 1.8 nM in experiment [1] and 95 nM on KDR kinase.

As to `Cc1cc(Nc2nc(N3CC4CCC(C3)N4C(=O)c3ccc(-n4cc(F)cn4)nc3)nc3ccccc23)n[nH]1` [Compound I-5, (6-(4-fluoro-1H-pyrazol-1-yl)pyridin-3-yl)(3-(4-((5-methyl-1H-pyrazol-3-yl)amino)quinazoline-2-yl)-3,8-diazabicyclo[3.2.1]octane-8-yl)methanone], the IC50 came out at 6.2 nM in experiment [1] and 149 nM on KDR kinase.

In the case of `Cc1cc(Nc2cc(C)[nH]n2)nc(N2CC3CCC(C2)N3C(=O)c2ccc(-n3cc(F)cn3)nc2)n1` [Compound I-4, (6-(4-fluoro-1H-pyrazol-1-yl)pyridin-3-yl)(3-(4-methyl-6-((5-methyl-1H-pyrazol-3-yl)amino)pyrimidin-2-yl)-3,8-diazabicyclo [3.2.1]octane-8-yl) methanone], the IC50 was found to be 1.4 nM in experiment [1] and 80 nM on KDR kinase.

For `Cc1cc(Nc2cc(C)[nH]n2)nc(N2C3CCC2CN(C(=O)c2ccc(-n4cc(C#N)cn4)nc2)C3)n1` [Compound I-9], the values for the IC50 (in experiment [1]; at KDR kinase) were 8.6 nM and 304 nM, respectively.

As for `Cc1cc(Nc2cc(C)[nH]n2)nc(N2CCN(C(=O)c3ccc(-n4cc(F)cn4)nc3)CC2)n1` [Compound I-1, (6-(4-fluoro-1H-pyrazol-1-yl)pyridin-3-yl)(4-(4-methyl-6-((5-methyl-1H-pyrazol-3-yl)amino)pyrimidin-2-yl)piperazin-1-yl)methanone], the results for the IC50 (in experiment [1]; at KDR kinase) were 12.5 nM and 1130 nM, respectively.

Regarding `Cc1cc(Nc2cc(CO)nc(N3CC4CCC(C3)N4C(=O)c3ccc(-n4cc(F)cn4)nc3)n2)n[nH]1` [Compound I-20, (6-(4-fluoro-1H-pyrazol-1-yl)pyridin-3-yl)(3-(4-(hydroxymethyl)-6-((5-methyl-1H-pyrazol-3-yl)amino)pyrimidin-2-yl)-3,8-diazabicyclo[3.2.1]octane-8-yl)methanone], the IC50 in experiment [1] is 3 nM; on KDR kinase it was 1550 nM.
